Measured values from US9950072B2, “Controlled release formulations for the delivery of HIF-1 inhibitors” (The Johns Hopkins University, priority 2012, dated 2018).
“Also recorded” adds a separate entry of the source.

What was measured:
[1] = tested on: retinal NV in C57BL/6 mice with oxygen-induced ischemic retinopathy; experiment: Oxygen-induced ischemic retinopathy, area of retinal NV; assay type: in vivo; conditions: measured five days later (P17)
Protocol: At P17, the area of retinal NV on the surface of the retina was measured. […] Retinas were dissected, washed, and incubated with goat-anti rat polyclonal antibody conjugated with Alexa 488 (Invitrogen, Carlsbad, Calif.) at 1:500 dilution at room temperature for 45 minutes and flat mounted. An observer masked with respect to treatment group measured the area of NV per retina by image analysis.

[2] = tested on: retinal function in C57BL/6 mice; experiment: Electroretinograms (ERGs) after intraocular injection
Protocol: For scotopic recordings, mice were dark adapted overnight, and for photopic recordings, mice were adapted for 10 min to background white light at an intensity of 30 cd/m^2. The mice were anesthetized with an intraperitoneal injection of ketamine hydrochloride (100 mg/kg body weight) and xylazine (5 mg/kg body weight). Pupils were dilated with Midrin P containing of 0.5% tropicamide and 0.5% phenylephrine, hydrochloride (Santen Pharmaceutical Co., Osaka, Japan). The mice were placed on a pad heated to 39° C. and platinum loop electrodes were placed on each cornea after application of Gonioscopic prism solution (Alcon Labs, Fort Worth, Tex.). A reference electrode was placed subcutaneously in the anterior scalp between the eyes and a ground electrode was inserted into the tail. The head of the mouse was held in a standardized position in a ganzfeld bowl illuminator that ensured equal illumination of the eyes. Recordings for both eyes were made simultaneously with electrical impedance balanced. Scotopic ERGs were recorded at 11 intensity levels of white light ranging from −3.00 to 1.40 log cd-s/m2. Six measurements were averaged for each flash intensity. Photopic ERGs were recorded at three intensity levels of white light ranging from 0.60 to 1.40 log cd-s/m2 with a 30 cd/m2 background. Five measurements were averaged for each flash intensity.

[3] = tested on: choroidal NV in C57BL/6 mice; experiment: Laser-induced choroidal NV (rupture of Bruch's membrane) mouse model; assay type: in vivo; conditions: 14 days, vs fellow eyes injected with vehicle
Protocol: Pathogen-free C57BL/6 mice (Charles River, Wilmington, Mass.) were treated in accordance with the Association for Research in Vision and Ophthalmology Statement for the Use of Animals in Ophthalmic and Vision Research and the guidelines of the Johns Hopkins University Animal Care and Use Committee.
Choroidal NV was induced by laser photocoagulation-induced rupture of Bruch's membrane as previously described (Tobe, T. et al., Am. J. Pathol. 135(5): 1641-1646 (1998)). […] Laser photocoagulation (75 μm spot size, 0.1 sec duration, 120 mW) was performed in the 9, 12, and 3 o'clock positions of the posterior pole of each eye with the slit lamp delivery system of an OcuLight GL diode laser (Iridex, Mountain View, Calif.) and a handheld cover slip as a contact lens to view the retina. Production of a bubble at the time of laser, which indicates rupture of Bruch's membrane, is an important factor in obtaining CNV; therefore, only burns in which a bubble was produced were included in the study.
Immediately after laser-induced rupture of Bruch's membrane, mice were randomized to various treatment groups for intraocular injections. Intravitreal injections were done under a dissecting microscope with a Harvard Pump Microinjection System and pulled glass micropipettes.
At 1, 4, 7, and 14 days after injection, fundus photographs were taken with a Micron III® camera (Phoenix Research Laboratories Inc., Pleasanton, Calif.). After 14 days, the mice were perfused with 1 ml of PBS containing 25 mg/ml of fluorescein-labeled dextran (2×10^6 Daltons average molecular weight; Sigma-Aldrich, St. Louis, Mo.) and choroidal flat mounts were examined by fluorescence microscopy. Images were captured with a Nikon Digital Still Camera DXM1200 (Nikon Instruments Inc., New York, N.Y.). Image analysis software (Image-Pro® Plus; Media Cybernetics, Silver Spring, Md.) was used to measure the total area of CNV at each rupture site with the investigator masked with respect to treatment group.

[4] = tested on: HIF-1 transcriptional activity and ocular NV; conditions: intraocular injections of 0.01-0.25 μg; cited from earlier work
[5] = tested on: photoreceptor cells (ONL) of C57BL/6 mice; experiment: Outer nuclear layer (ONL) thickness after intraocular injection; assay type: in vivo; conditions: 0.25 μg intraocular; one week
Protocol: ONL thickness was measured. […] Mice were euthanized, a mark was placed at 12:00 at the corneal limbus, and eyes were removed and embedded in optimal cutting temperature compound. Ten micrometer frozen sections were cut parallel to the 12:00 or 9:00 meridian through the optic nerve and fixed in 4% paraformaldehyde. The sections were stained with hematoxylin and eosin, examined with an Axioskop microscope (Zeiss, Thornwood, N.Y.), and images were digitized using a three charge-coupled device (CCD) color video camera (IK-TU40A; Toshiba, Tokyo, Japan) and a frame grabber. Image-Pro Plus software (Media Cybernetics, Silver Spring, Md.) was used to outline the ONL.

[6] = 1 μg intraocular, fourteen days
[7] = 0.1 μg intraocular injection after laser
[8] = 1.0 μg intraocular injection after laser
[9] = 10 μg intraocular injection after laser

| Structure (SMILES) | area of RNV ([1]; 0.01 μg intraocular at P12) | area of RNV ([1]; 0.1 μg intraocular at P12) | area of RNV ([1]; 1.0 μg intraocular at P12) | mean scotopic and photopic b-wave amplitudes [2, 6] | area of CNV [3, 7] | area of CNV [3, 8] | area of CNV [3, 9] | effect on HIF-1 transcriptional activity and ocular NV [4] | mean scotopic and photopic b-wave amplitudes ([2]; 0.05 μg intraocular) | ERG amplitudes (scotopic a-wave, scotopic b-wave, photopic b-wave) ([2]; 0.25 μg intraocular, one week) | outer nuclear layer thickness [5] |
| --- | --- | --- | --- | --- | --- | --- | --- | --- | --- | --- | --- |
| COc1cccc2c1C(=O)c1c(O)c3c(c(O)c1C2=O)C[C@@](O)(C(=O)CO)C[C@@H]3O[C@H]1C[C@H](N)[C@H](O)[C@H](C)O1 [DXR, doxorubicin] | but not 0.1 or 0.01 μg, significantly reduced; also recorded: did not show a statistically significant reduction in the area of RNV | but not 0.1 or 0.01 μg, significantly reduced; also recorded: did not show a statistically significant reduction in the area of RNV | significantly reduced the area of retinal NV; also recorded: statistically significant reduction in the area of RNV | significant reduction in mean scotopic and photopic b-wave amplitudes | did not have a significant effect; also recorded: did not show a statistically significant reduction in the area of CNV | did not have a significant effect; also recorded: did not show a statistically significant reduction in the area of CNV | suppressed choroidal NV; also recorded: statistically significant reduction in the area of CNV |  |  |  |  |
| COc1cccc2c1C(=O)c1c(O)c3c(c(O)c1C2=O)C[C@@](O)(C(C)=O)C[C@@H]3O[C@H]1C[C@H](N)[C@H](O)[C@H](C)O1 [DNR, daunorubicin] | had no significant effect; also recorded: did not show a statistically significant reduction in the area of RNV | caused a small reduction; also recorded: statistically significant reduction in the area of RNV | markedly reduced the area of retinal NV; also recorded: statistically significant reduction in the area of RNV | significant reduction in mean scotopic and photopic b-wave amplitudes | had no significant effect; also recorded: did not show a statistically significant reduction in the area of CNV | had no significant effect; also recorded: did not show a statistically significant reduction in the area of CNV | suppressed choroidal NV; also recorded: statistically significant reduction in the area of CNV |  |  |  |  |
| C[C@H]1O[C@@H](O[C@H]2[C@@H](O)C[C@H](O[C@H]3[C@@H](O)C[C@H](O[C@H]4CC[C@@]5(C)[C@H](CC[C@@H]6[C@@H]5C[C@@H](O)[C@]5(C)[C@@H](C7=CC(=O)OC7)CC[C@]65O)C4)O[C@@H]3C)O[C@@H]2C)C[C@H](O)[C@@H]1O [digoxin] |  |  |  |  |  |  |  | suppress HIF-1 transcriptional activity and ocular NV | significant reduction in mean scotopic and photopic b-wave amplitudes | significant reduction in mean scotopic a-wave amplitude, mean scotopic b-wave amplitude, and mean photopic b-wave amplitude | reduction in outer nuclear layer thickness at 3 of 6 measurement locations |
